We go through 1 substance from patent US12629348B2, “Method and composition for treating osteoarthritis” (Vireo Systems, Inc., priority 2013, dated 2026).

A short description of data set [1]: Standard blood chemistry profile of OA canines for trial period. Conditions: 36 mg/kg/day oral. It is filed as in vivo, canine. The protocol: The double-blind study was performed on a total of 30 adult canines of various breeds in five different private practice clinics. Owner consent was obtained prior to participation in the study. Each clinic was responsible for enrolling 6 canines into the study. Inclusion criteria for the study consisted of clinical assessment and radiograph confirmation of OA in at least one joint and a score of 22 or greater on the Helsinki chronic pain index (“HCPI”). Use of NSAIDs or other dietary supplements for OA were allowed, provided the current treatment regimens had not been altered for a period of at least three months. A randomized block design was used with canines assigned in a one to one ratio into either placebo (36 mg/kg/day maltose-dextran; Vireo Resources, Plattsmouth, NE) or Alpha-GEE (36 mg/kg/day; Vireo Resources, Plattsmouth, NE) treatment group. The block size was six canines, corresponding to the total number of canines enrolled from each clinic. Group assignments for each canine were blinded to both the owners and attending veterinarian until all the data was collected and reported. Both Alpha-GEE and placebo were provided in 400 mg capsules and owners were instructed on the proper method for daily oral administration of capsules to their canines and provided with the appropriate number of capsules for the duration of the 2-week study. Blood samples were taken at both the start and conclusion of the two-week trial period to monitor for changes in blood chemistry as well as potential changes in inflammatory markers as described below. Owners completed the HCPI prior to starting the study, one-week after starting the study, and a final time at the conclusion of the study at two-weeks.
In addition to the standard blood chemistry profile, blood samples taken before and at the conclusion of the two-week trial period were analyzed for PGE2 and SAA. Blood samples were collected in heparin tubes for PGE2 and in serum collection tubes for SAA. Both plasma and serum samples were centrifuged at 2000×g for 10 minutes and the plasma and serum supernatants removed and frozen at […] until analyzed for PGE2 and SAA using enzyme-linked immunosorbent assays ([…]). Of the 30 canines enrolled, 8 were excluded from the blood analysis portion of the study due to sampling/storage issues resulting in a lack of a pre- or post-trial sample. As PGE2 is rapidly metabolized in plasma, measurement of PGE2 metabolites is the most reliable method for assessing plasma levels of PGE2. Plasma samples were analyzed for PGE2 using the bicycle PGE2 competitive EIA kit purchased from Cayman Chemical (Ann Arbor, MI). The assay converts PGE2 metabolites into a stable derivative that is measured using EIA. Samples (100 μl) were analyzed in triplicate and PGE2 concentrations determined by use of standard curve. For SAA measurements, a solid phase sandwich EIA kit (Tridelta Development Ltd, Maytooth, Co Kildare, Ireland) was used as described previously.

Another data set relates to brain endothelial cells. Description: Release of PGE2 from brain endothelial cells exposed to bacterial endotoxin. Type of data set: cell-based. Conditions: FIG. 1. From the text:
The brain endothelial cells were first exposed to bacterial endotoxin.

Another data set deals with serum amyloid A. The data set can be described thus: Serum amyloid A (solid phase sandwich EIA) in OA canines. Type of data set: in vivo, canine. To be noted: 36 mg/kg/day oral. The protocol:
The double-blind study was performed on a total of 30 adult canines of various breeds in five different private practice clinics. Owner consent was obtained prior to participation in the study. Each clinic was responsible for enrolling 6 canines into the study. Inclusion criteria for the study consisted of clinical assessment and radiograph confirmation of OA in at least one joint and a score of 22 or greater on the Helsinki chronic pain index (“HCPI”). Use of NSAIDs or other dietary supplements for OA were allowed, provided the current treatment regimens had not been altered for a period of at least three months. […]
In addition to the standard blood chemistry profile, blood samples taken before and at the conclusion of the two-week trial period were analyzed for PGE2 and SAA. […] Both plasma and serum samples were centrifuged at 2000×g for 10 minutes and the plasma and serum supernatants removed and frozen at […] until analyzed for PGE2 and SAA using enzyme-linked immunosorbent assays (“HA”). […] Plasma samples were analyzed for PGE2 using the bicycle PGE2 competitive EIA kit purchased from Cayman Chemical (Ann Arbor, MI). The assay converts PGE2 metabolites into a stable derivative that is measured using EIA. Samples (100 μl) were analyzed in triplicate and PGE2 concentrations determined by use of standard curve. […]

In the case of “ethyl (α-guanido-methyl) ethanoate [Alpha-GEE]”, in data set [1] (mean ± SD after two weeks, pre-trial 1.2 ± 0.7, normal range 0.3-1.4), the “Creatinine, post-trial” value was found to be 1.5 ± 0.7 mg/dL. Besides, the “Total Protein, post-trial” value in data set [1] (mean ± SD after two weeks, pre-trial 6.6 ± 0.4, normal range 5.4-8.2) is 6.5 ± 0.4 g/dL. In data set [1] (mean ± SD after two weeks, pre-trial 24 ± 22, normal range 7-25), the “BUN, post-trial” value came out at 24 ± 19 mg/dL. Also, the “ALT, post-trial” value in data set [1] (mean ± SD after two weeks, pre-trial 89 ± 99, normal range 10-118) was 53 ± 37 U/L. The “Glucose, post-trial” value in data set [1] (mean ± SD after two weeks, pre-trial 102 ± 11, normal range 80-110) came out at 101 ± 11 mg/dL. Besides, the “ALP, post-trial” value in data set [1] (mean ± SD after two weeks, pre-trial 110 ± 104, normal range 20-150) stood at 103 ± 131 U/L. Besides, the “change in post-trial blood chemistry profiles compared to pre-trial values” in data set [1] (two-week trial) is on record as “no significant changes”. For the same substance, the results for the “reduction in the release of PGE2 from brain endothelial cells” value in the data set with brain endothelial cells (concentration of about 20 μM or more) and in the data set on brain endothelial cells (concentration of about 1000 μM or more) were not below 50% and “greater than 50%”, respectively. Further, the “Serum Amyloid A concentration, post-trial” value in the data set with serum amyloid A (mean ± SD after two weeks, pre-trial 673 ± 869, p < 0.05 compared to placebo (1483 ± 1653)) came out at 255 ± 221 ng/mL. The “SAA levels compared to placebo at the end of the study” value in the data set with serum amyloid A (two-week trial, 36 mg/kg/day) is reported as “significantly lower”.
